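Cultured in 96-well plates, cells were exposed to test compound for 48 hours across five concentrations. GI50: concentration for 50% inhibition of growth.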 Activity calls are given as the source filed them. Rule as the data show it: active = GI50 up to about 1.1 µM and inactive = higher.
Key:
Experiment in all cases: DTP human tumour cell line panel, 48 h
786-0 = system: 786-0
A498 = system: A498
A549 = system: A549
ACHN = system: ACHN
BT-549 = system: BT-549
CAKI-1 = system: CAKI-1
CCRF-CEM = system: CCRF-CEM
COLO 205 = system: COLO 205
DU-145 = system: DU-145
EKVX = system: EKVX
HCC 2998 = system: HCC 2998
HCT-116 = system: HCT-116
HCT-15 = system: HCT-15
HL-60 = system: HL-60
HOP-62 = system: HOP-62
HOP-92 = system: HOP-92
HT-29 = system: HT-29
Hs-578T = system: Hs-578T
IGROV-1 = system: IGROV-1
K562 = system: K562
KM12 = system: KM12
LOX IMVI = system: LOX IMVI
M14 = system: M14
MCF7 = system: MCF7
MDA-MB-231 = system: MDA-MB-231
MDA-MB-435 = system: MDA-MB-435
MDA-N = system: MDA-N
MOLT-4 = system: MOLT-4
Malme-3M = system: Malme-3M
NCI-H226 = system: NCI-H226
NCI-H23 = system: NCI-H23
NCI-H460 = system: NCI-H460
NCI-H522 = system: NCI-H522
NCI/ADR-RES = system: NCI/ADR-RES
OVCAR-3 = system: OVCAR-3
OVCAR-4 = system: OVCAR-4
OVCAR-5 = system: OVCAR-5
OVCAR-8 = system: OVCAR-8
PC-3 = system: PC-3
RPMI-8226 = system: RPMI-8226
RXF 393 = system: RXF 393
SF-268 = system: SF-268
SF-295 = system: SF-295
SF-539 = system: SF-539
SK-MEL-28 = system: SK-MEL-28
SK-MEL-2 = system: SK-MEL-2
SK-MEL-5 = system: SK-MEL-5
SK-OV-3 = system: SK-OV-3
SN12C = system: SN12C
SNB-19 = system: SNB-19
SNB-75 = system: SNB-75
SR = system: SR
SW-620 = system: SW-620
T47D = system: T47D
TK-10 = system: TK-10
U-251 = system: U-251
UACC-257 = system: UACC-257
UACC-62 = system: UACC-62
UO-31 = system: UO-31

## CCOC(=O)C1CC(C(=O)c2ccccc2)N2c3ccccc3-c3ccccc3C12 (centres undefined)
786-0
  GI50: 40.1 µM (inactive)
A498
  GI50: > 100 µM (inactive)
A549
  GI50: 73.6 µM (inactive)
ACHN
  GI50: > 100 µM (inactive)
BT-549
  GI50: 57.3 µM (inactive)
CAKI-1
  GI50: > 100 µM (inactive)
CCRF-CEM
  GI50: 28.1 µM (inactive)
COLO 205
  GI50: 30.2 µM (inactive)
DU-145
  GI50: > 100 µM (inactive)
EKVX
  GI50: > 100 µM (inactive)
HCC 2998
  GI50: > 100 µM (inactive)
HCT-116
  GI50: 30.8 µM (inactive)
HCT-15
  GI50: > 100 µM
HL-60
  GI50: 10.7 µM (inactive)
HOP-62
  GI50: 97.1 µM (inactive)
HOP-92
  GI50: 52.8 µM (inactive)
HT-29
  GI50: 78.2 µM (inactive)
Hs-578T
  GI50: 25.9 µM (inactive)
IGROV-1
  GI50: 37.2 µM (inactive)
K562
  GI50: 31.6 µM (inactive)
KM12
  GI50: 48.6 µM (inactive)
LOX IMVI
  GI50: 65 µM (inactive)
M14
  GI50: 26.4 µM (inactive)
MCF7
  GI50: > 100 µM (inactive)
MDA-MB-231
  GI50: 41.7 µM (inactive)
MDA-MB-435
  GI50: 86.7 µM (inactive)
MDA-N
  GI50: > 100 µM (inactive)
MOLT-4
  GI50: 52 µM (inactive)
Malme-3M
  GI50: > 100 µM (inactive)
NCI-H226
  GI50: > 100 µM (inactive)
NCI-H23
  GI50: > 100 µM (inactive)
NCI-H460
  GI50: > 100 µM (inactive)
NCI-H522
  GI50: 50.9 µM (inactive)
NCI/ADR-RES
  GI50: 43.2 µM (inactive)
OVCAR-3
  GI50: 30 µM (inactive)
OVCAR-4
  GI50: 26.4 µM (inactive)
OVCAR-5
  GI50: > 100 µM (inactive)
OVCAR-8
  GI50: 33.8 µM (inactive)
PC-3
  GI50: 40.6 µM (inactive)
RPMI-8226
  GI50: 11.9 µM (inactive)
RXF 393
  GI50: 29.9 µM (inactive)
SF-268
  GI50: 74.6 µM (inactive)
SF-295
  GI50: 82.2 µM (inactive)
SF-539
  GI50: > 100 µM (inactive)
SK-MEL-28
  GI50: > 100 µM (inactive)
SK-MEL-2
  GI50: > 100 µM (inactive)
SK-MEL-5
  GI50: 45.1 µM (inactive)
SK-OV-3
  GI50: > 100 µM (inactive)
SN12C
  GI50: > 100 µM (inactive)
SNB-19
  GI50: > 100 µM (inactive)
SNB-75
  GI50: 28.1 µM (inactive)
SR
  GI50: 19.2 µM (inactive)
SW-620
  GI50: > 100 µM (inactive)
T47D
  GI50: 23.6 µM (inactive)
TK-10
  GI50: > 100 µM (inactive)
U-251
  GI50: 30.3 µM (inactive)
UACC-257
  GI50: > 100 µM (inactive)
UACC-62
  GI50: 46.7 µM (inactive)
UO-31
  GI50: 32.7 µM (inactive)

From ChEMBL document CHEMBL1201862, “PubChem BioAssay data set” (2004)
